According to patent US12643887B2, “Heterocyclic derivatives with cardiomyocyte proliferation activity for treatment of heart diseases” (Tongji University, priority 2019, dated 2026):

Experiments:
human CLK1 = target: T1, human CLK1 (Homo sapiens, UniProt P49759); assay: CLK1 enzyme assay (ADP-Glo); type: biochemical; details: ADP-Glo, ATP 10 μM; read-out: CLK1 IC50
T1 construct: Recombinant human CLK1 (129-end); GST (N); purchased SignalChem C57-11G; host or cells: Sf9 insect cells
Method: The ability of compounds to inhibit human CLK1 kinase activities was determined using a commercially available ADP-Glo™ Kinase Assay kit (Promega, Cat #V9102) according to the manufacturer's protocol.
(§1) Recombinant human CLK1 (129-end) (expressed in Sf9 insect cells with an N-terminal GST tag) was purchased from SignalChem (Cat #C57-11G). Recombinant full length human MBP (expressed in E. Coli cells with an N-terminal GST tag.) was purchased from SignalChem (Cat #M42-54G). This assay, run in a 384-well plate format, is a generic method for measuring kinase activities using an ADP-Glo Kinase Assay Kit. The basic assay procedure involves two steps: (1) Enzymatic step: inhibitors are incubated with the kinase and then ATP (included in the ADP-Glo Kinase Assay Kit) and the MBP protein are added to start the enzymatic reaction; (2) Detection step: after the kinase reaction, first ADP-Glo™ Reagent is added to terminate the kinase reaction and deplete the remaining ATP. Second, the Kinase Detection Reagent is added to simultaneously convert ADP to ATP and allow the newly synthesized ATP to be measured using a luciferase/luciferin reaction. The light generated is measured using a luminometer.
(§2) Briefly, CLK1 (16 nM) in the enzymatic buffer solutions (40 mM Tris, pH 7.5, 20 mM MgCl2, 0.1 mg/ml BSA, 50 μM DTT) were mixed with various concentrations of inhibitors (dissolved in 100% DMSO). These solutions were incubated for 30 minutes at 25° C., and subsequently a mixture of substrate peptide and ATP was added with the final peptide and ATP concentrations at 2 μM and 10 μM, respectively. The final reaction mixture of enzyme-substrate-ATP-compound was incubated for 60 minutes at 25° C.
Afterwards ADP-Glo™ Reagent was added and the mixture was incubated at 25° C. for 60 minutes. Then Kinase Detection Reagent was added and the final mixture was incubated at 25° C. for 60 minutes. The luminescence signal of the final solution was measured on an Envision instrument (PerkinElmer). The percent (%) inhibition at each concentration of a compound is calculated relative to the luminescence signal in the Max and Min control wells contained within each assay plate. […] The concentrations and percent inhibition values for a test compound are plotted and the concentration of the compound required to achieve 50% inhibition (IC50) is determined with a four-parameter logistic dose response equation.

human HIPK1 = target: T2, human HIPK1 (Homo sapiens, UniProt Q86Z02); assay: HIPK1 enzyme assay (ADP-Glo); type: biochemical; details: ADP-Glo, ATP 5 μM; read-out: HIPK1 IC50
T2 construct: Recombinant human HIPK1 (156-555); GST (N); purchased SignalChem H03-11G; host or cells: Sf9 insect cells
Method: The ability of compounds to inhibit human HIPK1 kinase activities was determined using a commercially available ADP-Glo™ Kinase Assay kit (Promega, Cat #V9102) according to the manufacturer's protocol.
as §1, with “HIPK1 (156-555)” for “CLK1 (129-end)”, “#H03-11G).” for “#C57-11G).”, “tag)” for “tag.)”
as §2, with “Briefly, HIPK1 (4” for “Briefly, CLK1 (16”, “at 0.05 mg/ml” for “at 2 μM”, “and 5” for “and 10”, “for 90” for “for 60”
Afterwards ADP-Glo™ Reagent was added and the mixture was incubated at 25° C. for 60 minutes. Then Kinase Detection Reagent was added, and the final mixture was incubated at 25° C. for 60 minutes. The luminescence signal of the final solution was measured on an Envision instrument (PerkinElmer). The percent (%) inhibition at each concentration of a compound is calculated relative to the luminescence signal in the Max and Min control wells contained within each assay plate. […] The concentrations and percent inhibition values for a test compound are plotted and the concentration of the compound required to achieve 50% inhibition (IC50) is determined with a four-parameter logistic dose response equation.

T2 sequence (Q86Z02 156-555): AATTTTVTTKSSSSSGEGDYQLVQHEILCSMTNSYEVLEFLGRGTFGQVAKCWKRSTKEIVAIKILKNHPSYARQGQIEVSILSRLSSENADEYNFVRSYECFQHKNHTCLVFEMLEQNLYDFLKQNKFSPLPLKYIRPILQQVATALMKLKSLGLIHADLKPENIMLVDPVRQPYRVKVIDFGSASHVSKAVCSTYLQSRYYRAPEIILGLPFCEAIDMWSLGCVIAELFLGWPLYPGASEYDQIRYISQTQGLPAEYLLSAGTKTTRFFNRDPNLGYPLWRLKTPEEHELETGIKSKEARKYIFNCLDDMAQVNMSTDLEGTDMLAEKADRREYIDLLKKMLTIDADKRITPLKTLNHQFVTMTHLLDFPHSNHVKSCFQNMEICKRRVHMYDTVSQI
T1 sequence (P49759 129-484 limits assumed): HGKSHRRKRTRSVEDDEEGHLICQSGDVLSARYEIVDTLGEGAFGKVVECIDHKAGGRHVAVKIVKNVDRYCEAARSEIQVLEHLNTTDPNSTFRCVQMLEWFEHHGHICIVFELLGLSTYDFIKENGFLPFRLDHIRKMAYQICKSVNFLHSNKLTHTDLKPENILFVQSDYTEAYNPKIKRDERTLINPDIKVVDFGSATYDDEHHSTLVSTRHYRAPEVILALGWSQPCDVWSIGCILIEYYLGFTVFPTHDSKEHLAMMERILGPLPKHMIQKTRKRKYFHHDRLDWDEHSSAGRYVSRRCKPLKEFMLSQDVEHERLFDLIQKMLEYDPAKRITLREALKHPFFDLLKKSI

Row | SMILES | IC50 (human CLK1) | IC50 (human HIPK1)
1 | O=C1NC(Nc2ccccc2)=N/C1=C\c1ccc2ncsc2c1 [Example 6, (Z)-5-(benzo[d]thiazol-6-ylmethylene)-2-(phenylamino)-3,5-dihydro-4H-imidazol-4-one] | < 0.1 µM | 0.1 to 1 µM
2 | O=C1/C(=C/c2ccc3ncsc3c2)N=C(N(Cc2ccccc2)c2ccccc2)N1Cc1ccccc1 [Example 42, (Z)-5-(benzo[d]thiazol-6-ylmethylene)-3-benzyl-2-(benzyl(phenyl)amino)-3,5-dihydro-4H-imidazol-4-one] | > 10 µM | > 10 µM
3 | CN(C1=N/C(=C\c2ccc3ncsc3c2)C(=O)N1)c1ccc(Cl)cc1 [Example 24, (Z)-5-(benzo[d]thiazol-6-ylmethylene)-2-((4-chlorophenyl)(methyl)amino)-3,5-dihydro-4H-imidazol-4-one] | 0.1 to 1 µM | > 10 µM
4 | COc1ccccc1N(C)C1=N/C(=C\c2ccc3c(c2)OCO3)C(=O)N1 [Example 21, (Z)-5-(benzo[d][1,3]dioxol-5-ylmethylene)-2-((2-methoxyphenyl)(methyl)amino)-3,5-dihydro-4H-imidazol-4-one] | 1 to 10 µM | > 10 µM
5 | O=C1NC(Nc2ccccc2)=N/C1=C\c1ccc2scnc2c1 [Example 14, (Z)-5-(benzo[d]thiazol-5-ylmethylene)-2-(phenylamino)-3,5-dihydro-4H-imidazol-4-one] | > 10 µM | > 10 µM
6 | O=C1NC(Nc2ccccc2)=N/C1=C\c1ccc2[nH]ccc2c1 [Example 51, (Z)-5-((1H-indol-5-yl)methylene)-2-(phenylamino)-3,5-dihydro-4H-imidazol-4-one] | > 10 µM | > 10 µM
7 | O=C1NC(Nc2ccccc2)=N/C1=C\c1ccc2nn[nH]c2c1 [Example 56, (Z)-5-((1H-benzo[d][1,2,3]triazol-6-yl)methylene)-2-(phenylamino)-3,5-dihydro-4H-imidazol-4-one] | < 0.1 µM | > 10 µM
8 | CC(C)NC1=N/C(=C\c2ccc3ncsc3c2)C(=O)N1C [Example 45, (Z)-5-(benzo[d]thiazol-6-ylmethylene)-2-(isopropylamino)-3-methyl-3,5-dihydro-4H-imidazol-4-one] | < 0.1 µM | 1 to 10 µM
9 | O=C1NC(NCCN2CCOCC2)=N/C1=C\c1ccc2ncsc2c1 [Example 29, (Z)-5-(benzo[d]thiazol-6-ylmethylene)-2-((2-morpholinoethyl)amino)-3,5-dihydro-4H-imidazol-4-one] | 0.1 to 1 µM | 1 to 10 µM
10 | CN(C1=N/C(=C\c2ccc3c(c2)OC(F)(F)O3)C(=O)N1)c1ccccc1 [Example 17, (Z)-5-((2,2-difluorobenzo[d][1,3]dioxol-5-yl)methylene)-2-(methyl(phenyl)amino)-3,5-dihydro-4H-imidazol-4-one] | > 10 µM | > 10 µM
11 | CN(CCN1CCOCC1)C1=N/C(=C\c2ccc3c(c2)OCO3)C(=O)N1 [Example 20, (Z)-5-(benzo[d][1,3]dioxol-5-ylmethylene)-2-(methyl(2-morpholinoethyl)amino)-3,5-dihydro-4H-imidazol-4-one] | 0.1 to 1 µM | > 10 µM
12 | Cn1ncc2ccc(/C=C3\N=C(Nc4ccc5ncsc5c4)NC3=O)cc21 [Example 80, (Z)-2-(benzo[d]thiazol-6-ylamino)-5-((1-methyl-1H-indazol-6-yl)methylene)-3,5-dihydro-4H-imidazol-4-one] | > 10 µM | > 10 µM

Next, values leading:

Row | IC50 (human CLK1) | IC50 (human HIPK1) | SMILES
13 | < 0.1 µM | 0.1 to 1 µM | O=C1NC(Nc2ccc3ncsc3c2)=N/C1=C\c1ccc2ncsc2c1 [Example 48, (Z)-2-(benzo[d]thiazol-6-ylamino)-5-(benzo[d]thiazol-6-ylmethylene)-3,5-dihydro-4H-imidazol-4-one]
14 | > 10 µM | > 10 µM | O=C1NC(Nc2ccc3ncsc3c2)=N/C1=C\c1ccc2c(c1)OCO2 [Example 47, (Z)-5-(benzo[d][1,3]dioxol-5-ylmethylene)-2-(benzo[d]thiazol-6-ylamino)-3,5-dihydro-4H-imidazol-4-one]
15 | > 10 µM | > 10 µM | O=C1NC(Nc2ccc3ncsc3c2)=N/C1=C\c1ccc2c(c1)OCCO2 [Example 74, (Z)-2-(benzo[d]thiazol-6-ylamino)-5-((2,3-dihydrobenzo[b][1,4]dioxin-6-yl)methylene)-3,5-dihydro-4H-imidazol-4-one]
16 | < 0.1 µM | > 10 µM | O=C1NC(Nc2ccc3nccnc3c2)=N/C1=C\c1ccc2ncsc2c1 [Example 82, (Z)-5-(benzo[d]thiazol-6-ylmethylene)-2-(quinoxalin-6-ylamino)-3,5-dihydro-4H-imidazol-4-one]
17 | < 0.1 µM | 0.1 to 1 µM | O=C1NC(Nc2ccc3c(c2)OCCO3)=N/C1=C\c1ccc2ncsc2c1 [Example 81, (Z)-5-(benzo[d]thiazol-6-ylmethylene)-2-((2,3-dihydrobenzo[b][1,4]dioxin-6-yl)amino)-3,5-dihydro-4H-imidazol-4-one]
18 | < 0.1 µM | > 10 µM | CN(C1=N/C(=C\c2ccc3ncsc3c2)C(=O)N1)c1ccc2ncsc2c1 [Example 83, (Z)-2-(benzo[d]thiazol-6-yl(methyl)amino)-5-(benzo[d]thiazol-6-ylmethylene)-3,5-dihydro-4H-imidazol-4-one]
19 | > 10 µM | > 10 µM | O=C1NC(Nc2ccc3ncsc3c2)=N/C1=C\c1ccc2cccnc2c1 [Example 60, (Z)-2-(benzo[d]thiazol-6-ylamino)-5-(quinolin-7-ylmethylene)-3,5-dihydro-4H-imidazol-4-one]
20 | > 10 µM | > 10 µM | O=C1NC(NC23CC4CC(CC(C4)C2)C3)=N/C1=C\c1ccc2scnc2c1 [Example 50, (Z)-2-(adamantan-1-ylamino)-5-(benzo[d]thiazol-5-ylmethylene)-3,5-dihydro-4H-imidazol-4-one]
21 | > 10 µM | > 10 µM | O=C1NC(Nc2ccccc2)=N/C1=C\c1ccc2sccc2c1 [Example 72, (Z)-5-(benzo[b]thiophen-5-ylmethylene)-2-(phenylamino)-3,5-dihydro-4H-imidazol-4-one]
22 | 0.1 to 1 µM | 1 to 10 µM | COc1ccc(N(C)C2=N/C(=C\c3ccc4ncsc4c3)C(=O)N2)cc1 [Example 38, (Z)-5-(benzo[d]thiazol-6-ylmethylene)-2-((4-methoxyphenyl)(methyl)amino)-3,5-dihydro-4H-imidazol-4-one]
23 | > 10 µM | > 10 µM | O=C1NC(N(CC2CC2)c2ccccc2)=N/C1=C\c1ccc2c(c1)OCCO2 [Example 39, (Z)-2-((cyclopropylmethyl)(phenyl)amino)-5-((2,3-dihydrobenzo[b][1,4]dioxin-6-yl)methylene)-3,5-dihydro-4H-imidazol-4-one]
